{
  "source": "patent US20240350591A1",
  "about": "“COMPOSITION AND METHODS OF TREATMENT USING […]-ENHANCED SUPPLEMENTATION” (Xygenyx Inc., priority 2023, published 2024)",
  "origin": "cited, not measured here",
  "key": {"skin [1]": {"tested_on": "skin", "settings": "topical, concentrations 0.5-5%"}, "[2]": {"settings": "transdermal route"}, "[3]": {"tested_on": "wide dynamic range neurons in the ventroposterolateral nucleus of the thalamus", "settings": "in vivo"}, "[4]": {"settings": "compared to α-tocopherol = 1.0"}, "F2-isoprostane": {"tested_on": "F2-isoprostane", "settings": "large doses of 1600-3200 IU/day"}, "skin [5]": {"tested_on": "skin", "settings": "topical formulations, within four weeks of treatment"}, "[6]": {"test": "not given", "remark": "listed apart in the source"}, "[7]": {"settings": "patients who did not respond to traditional antidepressant medications"}, "[8]": {"settings": "in vivo"}, "markers of inflammation": {"tested_on": "markers of inflammation", "settings": "individuals with metabolic syndrome"}, "[9]": {"settings": "dietary intake in equal portions"}},
  "note": "Non-standard residues stand in square brackets, D forms with d. Residues, ends and D or L forms follow the SMILES beside them. ξ: configuration not given here. Cit = NC(=O)NCCC[C@H](N)C(=O)O; Ile(3ξ) = CCC(C)[C@H](N)C(=O)O",
  "data": [
    {"compound": "C=CCCCCCCCCC(=O)N[C@@H](Cc1ccccc1)C(=O)O", "note": "[UP, Undecylenoyl phenylalanine]", "values": [
      {"measurement": "time of treatment to skin lightening effects", "setting": "skin [1]", "value": "≥ 7", "unit": "days"}
    ]},
    {"compound": "CC(C)[C@@H]1CC[C@@H](C)C[C@H]1O", "note": "[Menthol]", "values": [
      {"measurement": "factor of increase of drug uptake", "setting": "[2]", "value": "≥ 10"}
    ]},
    {"compound": "CCCCCc1cc(O)c2c(c1)OC(C)(C)C1CCC(C)=CC21", "note": "(centres unmarked) [THC, Δ-9-tetrahydrocannabinol]", "values": [
      {"measurement": "power in mediating pain relative to morphine", "setting": "[3]", "value": "ten times"}
    ]},
    {"compound": "Cc1cc(O)c(C)c2c1O[C@](C)(CCC[C@H](C)CCC[C@H](C)CCCC(C)C)CC2", "note": "[β-tocopherol]", "values": [
      {"measurement": "relative biological activity", "setting": "[4]", "value": 0.5}
    ]},
    {"compound": "Cc1c(C)c2c(c(C)c1O)CC[C@@](C)(CCC[C@H](C)CCC[C@H](C)CCCC(C)C)O2", "note": "[α-tocopherol]", "values": [
      {"measurement": "blood plasma concentration of F2-isoprostane", "setting": "F2-isoprostane", "value": "significantly lower"},
      {"measurement": "relative biological activity", "setting": "[4]", "value": 1.0},
      {"measurement": "reduction of risk of coronary disease", "setting": "dietary supplementation, doses up to 400 IU/day", "value": "up to 34%"},
      {"measurement": "reduction of risk of developing neurodegenerative diseases (Alzheimer's Syndrome or dementia)", "setting": "dietary supplementation, doses up to 400 IU/day, controlled trials", "value": "≤ 24", "unit": "%"},
      {"measurement": "reduction in the development of age-related cataracts", "setting": "in combination with 10-20 mg β-carotene and 400-500 mg vitamin C, doses around 400-500 IU", "value": 23, "unit": "%"}
    ]},
    {"compound": "CCC(C)[C@H](NC(=O)[C@H](CC(=O)O)NC(=O)[C@@H](N)CCCCN)C(=O)N[C@@H](CCCNC(N)=O)C(N)=O", "note": "(some centres unmarked) [tripeptide-10 citrulline, Tripeptide-10 citrulline] (H-KD[Ile(3ξ)][Cit]-NH2)", "values": [
      {"measurement": "improvement of suppleness", "setting": "skin [5]", "value": "≤ 54", "unit": "%"}
    ]},
    {"compound": "C=C1CC/C=C(\\C)CC[C@@H]2[C@@H]1CC2(C)C", "note": "[β-caryophyllene]", "values": [
      {"measurement": "increases of protein carbonyl groups and myeloperoxidase activity in the liver and plasma", "setting": "[6]; arthritic subjects", "value": "eliminated"},
      {"measurement": "number of circulating and articular leukocytes", "setting": "[6]; rheumatoid arthritis", "value": "reduced"},
      {"measurement": "swelling of joints and lymph nodes", "setting": "[6]; rheumatoid arthritis", "value": "reduced"}
    ]},
    {"compound": "CN1c2c([nH]c(N)nc2=O)NCC1CNc1ccc(C(=O)N[C@@H](CCC(=O)O)C(=O)O)cc1", "note": "(some centres unmarked) [5-MTHF, 5-methyltetrahydrofolate]", "values": [
      {"measurement": "symptoms of depression", "setting": "[7]", "value": "improved"}
    ]},
    {"compound": "HGH: hormone comprising a peptide chain that is synthesized in the pituitary gland", "values": [
      {"measurement": "biological half-life", "setting": "[8]", "value": "10-20 minutes"}
    ]},
    {"compound": "CC12CCC(CC1)C(C)(C)O2", "note": "[eucalyptol, 1,8-epoxy-p-menthane]", "values": [
      {"measurement": "factor of increase of drug uptake", "setting": "[2]", "value": "more than 10"}
    ]},
    {"compound": "Cc1cc(O)cc2c1O[C@](C)(CCC[C@H](C)CCC[C@H](C)CCCC(C)C)CC2", "note": "[δ-tocopherol]", "values": [
      {"measurement": "markers of inflammation in the blood", "setting": "markers of inflammation", "value": "reduced"},
      {"measurement": "relative biological activity", "setting": "[4]", "value": 0.03}
    ]},
    {"compound": "Cc1c(O)cc2c(c1C)O[C@](C)(CCC[C@H](C)CCC[C@H](C)CCCC(C)C)CC2", "note": "[γ-tocopherol]", "values": [
      {"measurement": "relative biological activity", "setting": "[4]", "value": 0.1},
      {"measurement": "concentration in vivo relative to α-tocopherol", "setting": "[9]", "value": "roughly 10%"}
    ]}
  ]
}
